Assay results taken from patent EP0290169A2, “Diamineplatinum complexes with phosphonocarboxylate and substituted phosphonocarboxylate ligands as antitumor agents” (ENGELHARD CORPORATION, priority 1987, dated 1988).

Key:
[1] = test system: Sarcoma 180 ascites; test: S180a screening (Sarcoma 180 ascites tumor model), increase in life span; assay type: in vivo, CFW mice; details: for Surv.: survivors on day of evaluation
Description: CFW mice, averaging 20 g, are innoculated on day zero with 0.2 mL of a freshly prepared saline suspension (0.15 M NaCI) containing 1 × 10^7 tumor cells/mL, or a total of 2 x 10^6 cells. On day I, the mice are injected with the test compound in the selected medium (usually water). Six mice are used per test dose, with six doses normally being run.
Also, on day one, two types of controls (6 mice/set are employed: (1) Normal (1 set): 0.5 mL of the solvent medium used for the test compound, and (2) Positive control (1 set): cis-[Pt(NH3)2Cl2] in saline at 8 mg/kg.
The effectiveness of a compound is measured in terms of the increase in life span (ILS) of the test animals relative to the controls calculated from the day of tumor inoculation (day zero). The day of evaluation is arbitrarily taken as that day corresponding to twice the mean life-span of the normal controls. This sets a practical upper limit of 100% on the ILS attainable. For calculation purposes, survivors on the day of evaluation are considered to have died on that day. The % ILS is formulated as: [formula]
ILS values above 50% represent activity. The positive controls must have an ILS of ≧ 50% for the test to be valid.

[2] = test system: L1210 leukemia; test: L1210 screening (L1210 leukemia tumor model), increase in life span; assay type: in vivo, Female CDF1 mice; details: for Surv.: survivors
Description: Female CDF1 mice (16-22 g) are injected with a suspension of 1 x 10^6 tumor cells in 0.5 mL of 0.15 M saline on day zero. On day one, the mice receive the test compound in 0.5 mL of the chosen medium (usually water). Six mice were used for each test dose, with six doses normally being run. Normal controls (six mice) receive tumor on day zero and 0.5 mL of the test medium on day one. Positive controls (six mice) receive tumor on day zero and 8 mg/kg cisplatin in 0.5 mL of 0.15 M saline on day one. All compound doses are adjusted for the actual average weight of the mice involved. Testing is terminated at three times the normal control mean life span. The percent increase in lifespan (ILS) is calculated as follows: %ILS = [(mean life span (test)/mean life span(control)-I]x100 A 25% ILS or greater indicates activity. The maximum possible ILS is 200%. The positive control must have an ILS of S 25% for the test to be considered valid.
The tumor line is maintained by transfer of 5 x 10^4- cells in 0.1 mL saline every seven days. DBA/2 (18-22 g) mice are employed for tumor transfers

[3] = dose 40.00 mg/kg on day 1, vehicle water
[4] = dose 80.00 mg/kg on day 1, vehicle water
[5] = dose 160.00 mg/kg on day 1, vehicle water
[6] = dose 5.00 mg/kg on day 1, vehicle water
[7] = dose 10.00 mg/kg on day 1, vehicle water
[8] = dose 20.00 mg/kg on day 1, vehicle water
[9] = dose 320.00 mg/kg on day 1, vehicle water
[10] = dose 5.00 mg/kg on day 1, vehicle water, pH7
[11] = dose 10.00 mg/kg on day 1, vehicle water, pH7
[12] = dose 20.00 mg/kg on day 1, vehicle water, pH7
[13] = dose 40.00 mg/kg on day 1, vehicle water, pH7
[14] = dose 80.00 mg/kg on day 1, vehicle water, pH7
[15] = dose 160.00 mg/kg on day 1, vehicle water, pH7

| SMILES | %ILS [1, 3] [%] | Surv. [1, 3] | %ILS [1, 4] [%] | Surv. [1, 4] | %ILS [1, 5] [%] | Surv. [1, 5] | %ILS [2, 7] [%] | Surv. [2, 7] | %ILS [2, 8] [%] | Surv. [2, 8] | %ILS [2, 3] [%] | Surv. [2, 3] | %ILS [2, 4] [%] | Surv. [2, 4] | %ILS [2, 5] [%] | Surv. [2, 5] | %ILS [1, 8] [%] | Surv. [1, 8] | further results |
| --- | --- | --- | --- | --- | --- | --- | --- | --- | --- | --- | --- | --- | --- | --- | --- | --- | --- | --- | --- |
| NC1CCCCC1N.O=C1[O][Pt][O]P(=O)([O-])C1c1ccccc1.[Na+] (mixture of isomers) [Ex 6, Na[Pt(trans-R,R-dach)(2-phosphonophenytacetate)]] | 24 | 0/ 6 | 88 | 2/ 6 | 102 | 5/ 6 | 6 | 0/ 6 | 26 | 0/ 6 | 47 | 0/ 6 | 53 | 0/ 6 | 76 | 0/ 6 |  |  | %ILS [2, 6]: 2%; Surv. [2, 6]: 0/ 6 |
| CC(N)CN.CCC1C(=O)[O][Pt][O]P1(=O)[O-].[Na+] (mixture of isomers) [Ex 8, Na[Pt(pn)(2-phosphonobutyrate)]] | 46 | 0/ 6 | 38 | 0/ 6 | 95 | 4/ 6 | -6 | 0/ 6 | -9 | 0/ 6 | 0 | 0/ 6 | -2 | 0/ 6 | 16 | 0/ 6 | 4 | 0/ 6 | %ILS [1, 6]: 4%; Surv. [1, 6]: 0/ 6; %ILS [1, 7]: 19%; Surv. [1, 7]: 0/ 6; %ILS [2, 9]: -44%; Surv. [2, 9]: 0/ 6 |
| CC(N)CN.CC1C(=O)[O][Pt][O]P1(=O)[O-].[Na+] (mixture of isomers) [Ex 12, Na[Pt(pn)(2-phosphonopropionate)]] | 24 | 0/ 6 | 40 | 0/ 6 | 53 | 1/ 6 |  |  |  |  |  |  |  |  |  |  | 20 | 0/ 6 |  |
| N.N.O=C1[O][Pt][O]P(=O)([O-])C1c1ccccc1.[Na+] (racemic) [Ex 7, Na[cis-Pt(NHs)2(2-phosphonophenylacetate)]] | 26 | 0/ 6 | 71 | 2/ 6 | 28 | 0/ 6 |  |  |  |  |  |  |  |  |  |  | 14 | 0/ 6 |  |
| CC(N)CN.O=C1CP(=O)(O)[O][Pt][O]1 (racemic) [Ex 10, H[Pt(pn)(phasphonoacetate)]] | 9 | 1/ 6 | -71 | 0/ 6 | -78 | 0/ 6 | 2 | 0/ 6 | -13 | 0/ 6 | -13 | 0/ 6 | -34 | 0/ 6 | -52 | 0/ 6 | 77 | 3/ 6 | %ILS [1, 9]: -79%; Surv. [1, 9]: 0/ 6; %ILS [2, 6]: -5%; Surv. [2, 6]: 0/ 6 |
| CCC1C(=O)[O][Pt][O]P1(=O)[O-].N.N.[Na+] (racemic) [Ex 14, Na[cis-Pt(NH3)2(2-phosphonobutyrate)]] |  |  |  |  |  |  | -10 | 0/ 6 | -8 | 0/ 6 | -15 | 0/ 6 | -5 | 0/ 6 | -67 | 0/ 6 |  |  | %ILS [2, 9]: -80%; Surv. [2, 9]: 0/ 6 |
| CC1C(=O)[O][Pt][O]P1(=O)[O-].N.N.[Na+] (racemic) [Ex 15, Na[cis-Pt(NH3)2(2-phosphonopropionate)]] | -7 | 0/ 6 | -80 | 0/ 6 | -80 | 0/ 6 |  |  |  |  |  |  |  |  |  |  | 1 | 0/ 6 | %ILS [1, 7]: 16%; Surv. [1, 7]: 1/ 6 |
| CCCC1C(=O)[O][Pt][O]P1(=O)[O-].N.N.[Na+] (racemic) [Ex 19, Na[cis-Pt(NH3)2(2-phosphonovalerate)]] | -85 | 0/ 6 | -95 | 0/ 6 | -95 | 0/ 6 |  |  |  |  |  |  |  |  |  |  | -74 | 0/ 6 |  |
| CC(C)N.CC(C)N.O=C1CP(=O)([O-])[O][Pt][O]1.[Na+] [Ex 9, Na[cis-Pt(i-PrNH2)2(phosphonoacetate)]] | -2 | 0/ 6 | -4 | 0/ 6 | 15 | 0/ 6 |  |  |  |  |  |  |  |  |  |  | 1 | 0/ 6 | %ILS [1, 9]: 17%; Surv. [1, 9]: 0/ 6 |
| NCCN.O=C1[O][Pt][O]P1(=O)O [Ex 13, H[Pt(en)(phosphonoformate)]] |  |  |  |  |  |  |  |  |  |  |  |  |  |  |  |  |  |  | %ILS [1, 10]: 9%; Surv. [1, 10]: 0/ 6; %ILS [1, 11]: 31%; Surv. [1, 11]: 1/ 6; %ILS [1, 12]: 63%; Surv. [1, 12]: 1/ 6; %ILS [1, 13]: 93%; Surv. [1, 13]: 5/ 6; %ILS [1, 14]: 58%; Surv. [1, 14]: 2/ 6; %ILS [1, 15]: -74%; Surv. [1, 15]: 0/ 6 |
| NCCN.O=C1CP(=O)(O)[O][Pt][O]1 [Ex 16, H[Pt(en)(phosphonoacetate)]] | 64 | 3/ 6 | 84 | 4/ 6 | 85 | 3/ 6 |  |  |  |  |  |  |  |  |  |  | 29 | 1/ 6 | %ILS [1, 6]: -2%; %ILS [1, 10]: -3%; Surv. [1, 10]: 0/ 6; Surv. [1, 6]: 0/ 6; %ILS [1, 7]: 3%; %ILS [1, 11]: 2%; Surv. [1, 11]: 0/ 6; Surv. [1, 7]: 0/ 6; %ILS [1, 12]: 14%; Surv. [1, 12]: 0/ 6; %ILS [1, 13]: 72%; Surv. [1, 13]: 2/ 6; %ILS [1, 14]: 93%; Surv. [1, 14]: 4/ 6; %ILS [1, 15]: -32%; Surv. [1, 15]: 1/ 6 |
| N.N.O=C1CP(=O)([O-])[O][Pt][O]1.[Na+] [Ex 21, Na(cis-Pt(NH3)2(phosphonoacetate)]] |  |  |  |  |  |  | -10 | 0/ 6 | -5 | 0/ 6 | 13 | 0/ 6 | 12 | 0/ 6 | 10 | 0/ 6 |  |  | %ILS [2, 9]: -80%; Surv. [2, 9]: 0/ 6 |
